# Where two headings read alike, the source gives them in different places.
# How the values were obtained:
# [1] = system: hnRNP-E1 mRNA; assay: In vitro translation of hnRNP-E1; format: biochemical, human
# Procedure: (§1) In vitro transcription-translation was carried out using the Linked SP6/T7 In Vitro Transcription/Translation Kit (Roche Applied Science) after addition of one of various targeted DNAs—pSPT18-25-hnRNP-E1 DNA, or Pst1-linearized plasmid pSPT18-folate receptor-α, or HPV16 L2 DNA, (0.5 μg/reaction)—to the transcription mix as described. In other experiments, the capacity for perturbing the interaction of hnRNP-E1 with the 25-nt hnRNP-E1 cis-element during in vitro translation was assessed in the presence of either scrambled oligonucleotides (5′-[…]-3′ SEQ ID NO:20) or specific antisense oligonucleotides (5′-[…]-3′ SEQ ID NO:21) generated against the 25-nt hnRNP-E1 mRNA cis-element (GenScript USA, Piscataway, N.J.).
# [2] = target: hnRNP-E1 binding to folate receptor mRNA and hnRNP-E1 mRNA cis-element (Homo sapiens, UniProt Q15365); settings: physiologically relevant thiols; cited from earlier work
# [3] = system: 25-nt hnRNP-E1 cis-element-driven CAT reporter; assay: 25-nt hnRNP-E1 cis-element-driven CAT reporter in placental 1584-HF cells; format: cell-based, human; settings: 50-μM L-homocysteine for 3-h at 37° C.
# Excerpt: To prepare pCAT-25 or pCAT-25-Mutant two pairs of oligonucleotides, one for pCAT-25, (5′-tagcaggtac AAGCTTCTCCCGCCCGCTCCCGCTCGCTCCCCATGG tgtaactagct-3′SEQ ID NO:22; 5′-agctagttaca CCATGGGGAGCGAGCGGGAGCGGGCGGGAGAAGCTT gtacctgcta-3′ SEQ ID NO:23), and one for pCAT-25-Mutant#6, (5′-tagcaggtac AAGCTTCTTCCGCCCGCTCCCGCTCGCTTCCCATGG tgtaactagct-3′ SEQ ID NO:24; 5′-agctagttaca CCATGGGGAGCGAGCGGGAGCGGGCGGGAGAAGCTT gtacctgcta-3′SEQ ID NO:25) were first linearized with HindIII and NcoI and subcloned into pCAT3 Control DNA digested with HindIII and NcoI.
# [4] = target: T1, RNA-protein complexes of GST-hnRNP-E1 and 25-nt hnRNP-E1 mRNA cis-element (Homo sapiens, UniProt Q15365, A205V); assay: Gel-shift assay: effect of thiols, iron and deferoxamine on RNA-protein complex formation; format: binding
# T1 construct: made in house; host or cells: Escherichia coli BL21
# [5] = target: T2, 25-nt hnRNP-E1 mRNA cis-element-bound hnRNP-E1 protein complexes (Homo sapiens, UniProt Q15365); assay: Slot-blot capture of intracellular RNA-protein complexes in placental 1584-HF cells; format: cell-based; settings: increasing concentrations, 2-hour exposure
# T2 construct: endogenous in cells; host or cells: human placental 1584-HF / 1584-LF cells
# Procedure: Slot-blot hybridization was carried out under high stringency conditions to detect intracellular RNA-protein complexes (composed of endogenous hnRNP-E1 RNA cis-element-bound to cellular hnRNP-E1 proteins) in placental 1584 cells under experimental conditions that modulated the intracellular concentration of homocysteine. We employed similar principles used to capture folate receptor-α mRNA cis-element-bound hnRNP-E1 complexes in HeLa-IU1 cells. […] Following RNase treatment and proteolysis, equal aliquots of the released small mRNA cis-element fragments were probed for evidence of enrichment of hnRNP-E1 mRNA cis-element in experimental cells using a specific [^35S]labeled antisense hnRNP-E1 mRNA cis-element probe.
# [6] = target: T3, RNA-protein interaction of 25-nt hnRNP-E1 mRNA cis-element and GST-hnRNP-E1 (Homo sapiens, UniProt Q15365, A205V); assay: Influence of thiols or iron(II) on the KD of the RNA-protein interaction; format: binding; settings: L-homocysteine present
# T3 construct: made in house; host or cells: Escherichia coli BL21
# Procedure: (§2) Specific binding was determined by subtracting values of non-specific binding with GST from those of total binding with GST-hnRNP-E1; (however, in Table 1 and FIG. 6G, non-specific binding using bovine serum albumin (BSA) was subtracted from total binding to GST-hnRNP-E1 to determine specific binding). The KD was calculated from a Scatchard plot using GraphPad Prism 6 from GraphPad Software (San Diego, Calif.), as previously described in the art.
# [7] = target: T1, RNA-protein complexes of GST-hnRNP-E1 and 25-nt hnRNP-E1 mRNA cis-element; assay: Gel-shift assay: effect of thiols, iron and deferoxamine on RNA-protein complex formation; format: binding; settings: fixed L-homocysteine
# Procedure: Other studies assessed the effect of iron(II) or iron(III) on homocysteine-induced RNA-protein interactions.
# Studies were conducted to evaluate the effect of iron(II) (as ferrous sulfate heptahydrate) or iron(III) (as ferric chloride hexahydrate) in modulating RNA-protein interactions during gel-shift assays in either the absence or presence of 10-mM glutathione. The iron preparation, either alone or with 50-μM of deferoxamine (DFO) to define the specificity of iron(II), was incubated first with glutathione and hnRNP-E1 before addition of other components of the reaction mixture. […] The samples were analyzed by PAGE and autoradiography overnight followed by densitometric analysis of the signals representing RNA-protein complexes.
# [8] = target: [^35S]18-nt folate receptor-α mRNA cis-element; settings: earlier studies, cited from earlier work
# [9] = target: [^35S]18-nt folate receptor-α mRNA cis-element; assay: Dissociation constant (KD) of GST-hnRNP-E1 or its mutant proteins for the 18-nt folate receptor-α mRNA cis-element; format: binding, human
# Procedure: (§3) Methods for testing the ability of an engineered hnRNP-E1 variant polypeptide to bind to an RNA comprising the sequence of SEQ ID NO:6 are known in the art. Such methods include, but are not limited to, RNA electrophoretic mobility shift assays, as exemplified herein, RNA pull-down assays, and oligonucleotide-targeted RNase H protection assays. Such assays are conducted in the presence or absence of homocysteine to determine the RNA-binding dependence of any particular hnRNP-E1 polypeptide tested on the presence of homocysteine. […] Additional methods are outline in Tang et al. (“Incrimination of heterogeneous nuclear ribonucleoprotein E1 (hnRNP-E1) as a candidate sensor of physiological folate deficiency.” J Biol Chem. 2011; 286(45):39100-39115), which is incorporated herein in its entirety.
# as §2
# [10] = system: HPV16 L2 RNA; assay: In vitro translation of HPV16 L2 protein; format: biochemical, Human Papillomavirus type 16
# Procedure: as §1
# Construction of plasmids for generation of HPV16 L2 RNA, gel-shift and in vitro translation studies were carried as described with additional treatments shown in FIGS. 10A-10D
# [11] = target: [^35S]25-nt hnRNP-E1 mRNA cis-element; assay: Dissociation constant (KD) of GST-hnRNP-E1 or its mutant proteins for the 25-nt hnRNP-E1 mRNA cis-element; format: binding, human
# Procedure: as §3, §2
# [12] = system: newly synthesized [^35S]hnRNP-E1 in placental 1584-HF cells; assay: Biosynthetic rate of hnRNP-E1 after protein transfection into placental 1584-HF cells; format: cell-based, human; settings: protein transfected in placental 1584-HF cells
# Excerpt: (§4) Transfection of purified recombinant wild-type or various mutant hnRNP-E1 proteins into cells was achieved using the Xfect™ Protein Transfection Kit (Clontech, Mountain View, Calif.). Briefly, placental 1584-HF cells in 10-cm dishes at 70-80% confluence were transfected with 2.4-mL serum-free medium and Xfect Protein Transfection Reagent (1.2-mL) containing 20-μg of either wild-type hnRNP-E1-, or highest-affinity (HA)-hnRNP-E1(C293S)-mutant, or wild-type-like hnRNP-E1 (G292A)-mutant proteins and 2-μg of ß-galactosidase at 37° C. for 60-min. After cysteine-starvation for 4-h, an aliquot of cells were assessed for ß-galactosidase activity (to measure the efficiency of co-transfection of ß-galactosidase) and the remaining cells were pulsed with L-[^35S]cysteine (250-μCi) and assessed for specific [^35S]cysteine incorporated into folate receptor to determine the biosynthetic rate of this protein. A similar protocol was employed for analysis of newly synthesized [^35S]hnRNP-E1 using anti-hnRNP-E1 antiserum-coupled agarose and control agarose in order to derive values for specific [^35S]cysteine incorporated into hnRNP-E1 and thereby determine the biosynthetic rate of this protein.
# [13] = system: newly synthesized [^35S]folate receptors in placental 1584-HF cells; assay: Biosynthetic rate of folate receptors after protein transfection into placental 1584-HF cells; format: cell-based, human; settings: protein transfected in placental 1584-HF cells
# Excerpt: as §4
# [14] = system: 25-nt hnRNP-E1 mRNA cis-element; assay: Gel-shift assay of hnRNP-E1 proteins with 25-nt hnRNP-E1 mRNA cis-element; format: binding, human; settings: absence of L-homocysteine
# Procedure: Parenthetically, there was no significant difference in RNA binding to GST-hnRNP-E1 by use of either 32P-RNA probes or 35S-labeled RNA probes used. Other studies assessed the effect of iron(II) or iron(III) on homocysteine-induced RNA-protein interactions.
# Recombinant GST-plasmid DNA, pGST-hnRNP-E1, pGST-hnRNP-E2, and related engineered variant plasmids were transformed into BL21 Escherichia coli from Novagen (Madison, Wis.). After induction by 1 mM isopropyl-1-thio-ß-D-galactopyranoside, the GST-hnRNP-E1 and engineered variant fusion proteins were individually purified using the B-PER GST Fusion Protein Purification Kit (Pierce, Rockford, Ill.). The eluted GST fusion proteins were dialyzed against 500 volumes of buffer to remove excess reducing reagents (such as dithiothreitol (DTT)) and assayed by SDS-PAGE and Western blots using anti-peptide hnRNP-E1 antiserum. Gel shift assays with target RNA were carried out as described.
# T1 sequence (Q15365 whole entry A205V, one chain of several): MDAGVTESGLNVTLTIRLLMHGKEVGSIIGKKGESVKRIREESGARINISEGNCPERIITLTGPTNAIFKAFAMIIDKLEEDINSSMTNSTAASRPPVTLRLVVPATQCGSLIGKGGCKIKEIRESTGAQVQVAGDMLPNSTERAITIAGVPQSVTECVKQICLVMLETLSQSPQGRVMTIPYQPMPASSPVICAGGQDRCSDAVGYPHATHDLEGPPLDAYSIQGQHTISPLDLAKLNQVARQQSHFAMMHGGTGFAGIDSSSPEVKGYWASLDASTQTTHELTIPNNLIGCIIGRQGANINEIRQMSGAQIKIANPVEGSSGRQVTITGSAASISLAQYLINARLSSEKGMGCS
# T3 sequence (Q15365 whole entry A205V): as the sequence (Q15365 whole entry A205V, one chain of several) above
# T2 sequence (Q15365 whole entry, one chain of several): as the sequence (Q15365 whole entry A205V, one chain of several) above, with V205A counted along it
# Chain of hnRNP-E1 binding to folate receptor mRNA and hnRNP-E1 mRNA cis-element (Q15365 whole entry): as the sequence (Q15365 whole entry A205V, one chain of several) above, with V205A counted along it
compound,measurement,setting,value
"N[C@@H](CCS)C(=O)O [L-Homocysteine, L-homocysteine]",translation of hnRNP-E1,"[1]; N-ethylmaleimide maintained in the reaction mixture, physiological concentrations",progressively increased translation of hnRNP-E1
same,hnRNP-E1 activation and mRNA-binding,[2],optimal
same,CAT activity,[3],further significant increase in CAT activity over baseline
same,RNA-protein complex formation,"[4]; 10-mM glutathione in reaction mixture, from 5-μM",dose-dependent increase in RNA-protein complex formation
same,concentration at which RNA-protein interaction can occur,[4]; in vitro assays using purified components,≥ 2.5 µM
same,RNA-protein signal,[4]; increasing physiologically relevant concentrations,dose-dependent increase of RNA-protein signal
same,slot-blot hybridization signal of captured RNA-protein complexes,[5],progressive dose-dependent increase in signal
"O.O.O.O.O.O.O.O=S(=O)([O-])[O-].[Fe+2] [iron(II), ferrous sulfate heptahydrate]",effect on in vitro translation of hnRNP-E1,[1]; agent added to translation mixture (4.1-mM ß-ME),dose-dependent impact in quenching the in vitro translation of hnRNP-E1
same,RNA-protein binding affinity (KD),[6],dose-dependent reduction in RNA-protein binding affinity
same,effect on RNA-complex formation,[7]; 10-mM glutathione,comparable dose-dependent reduction in RNA-complex formation
same,effect on formation of RNA-protein complexes,[7]; no glutathione,dose-dependent inhibitory effect
GST-hnRNP-E1: purified recombinant glutathione S-transferase fusion of wild-type human hnRNP-E1 (SEQ ID NO:1),Kd,[8]; L-homocysteine raised to levels of mild-to-moderate folate deficiency,0.5 nM
same,Kd,[8]; baseline,1.5 nM
same,Kd,[9]; L-Homocysteine 0 μM,1.47 nM
same,Kd,[9]; L-Homocysteine 10 μM,0.89 ± 0.16 nM
same,Kd,[9]; L-Homocysteine 50 μM,0.47 nM
same,HPV16 L2 protein signal,[10]; after quenching excess ß-ME by NEM (2 mM),insignificant reduction of HPV16 L2 protein signal
same,in vitro translation of HPV16 L2 protein,"[10]; basal conditions, excess ß-ME not counteracted by NEM, dose-dependent addition",progressive reduction in the in vitro translation of HPV16 L2 protein
same,Kd,"[11]; Iron(II) 0 μM, L-Homocysteine 25 μM",2.74 ± 0.52 nM
same,Kd,"[11]; Iron(II) 5 μM, L-Homocysteine 25 μM",3.72 ± 0.34 nM
same,Kd,"[11]; Iron(II) 25 μM, L-Homocysteine 25 μM",6.5 ± 0.83 nM
same,Kd,[11]; L-Homocysteine 0 μM,1.93 nM
same,Kd,[11]; L-Homocysteine 10 μM,1.14 nM
same,Kd,[11]; L-Homocysteine 50 μM,0.62 nM
same,[^35S]cysteine-hnRNP-E1,[12],1.12 ± 0.23 b fmol/mg protein/h
same,[^35S]cysteine-hnRNP-E1,[12]; listed as wild-type hnRNP-E1,1.12 fmol/mg protein/h
same,[^35S]cysteine-folate receptor,[13],1.62 ± 0.11 b fmol/mg protein/h
same,[^35S]cysteine-folate receptor,[13]; listed as wild-type hnRNP-E1,1.62 fmol/mg protein/h
same,RNA-protein gel-shift signal,[14],no RNA-protein gel-shift signals
